{"source": "patent US20200239530A1", "about": "“COMPOUNDS AND METHODS OF MODULATING PROTEIN DEGRADATION” (Vividion Therapeutics, Inc., priority 2017, published 2020)", "assay_in_all_cases": "Cysteine liganding, probe competition", "format_in_all_cases": "binding", "key": {"[1]": {"biological_target": "T1, TRIM71 E3 ubiquitin-protein ligase TRIM71 (Homo sapiens, UniProt Q2Q1W2)", "T1 construct": "Cells were resuspended in cold PBS on ice and sonicated with a probe sonicator to achieve lysis; endogenous in cells", "T1 sequence (Q2Q1W2 1-868)": "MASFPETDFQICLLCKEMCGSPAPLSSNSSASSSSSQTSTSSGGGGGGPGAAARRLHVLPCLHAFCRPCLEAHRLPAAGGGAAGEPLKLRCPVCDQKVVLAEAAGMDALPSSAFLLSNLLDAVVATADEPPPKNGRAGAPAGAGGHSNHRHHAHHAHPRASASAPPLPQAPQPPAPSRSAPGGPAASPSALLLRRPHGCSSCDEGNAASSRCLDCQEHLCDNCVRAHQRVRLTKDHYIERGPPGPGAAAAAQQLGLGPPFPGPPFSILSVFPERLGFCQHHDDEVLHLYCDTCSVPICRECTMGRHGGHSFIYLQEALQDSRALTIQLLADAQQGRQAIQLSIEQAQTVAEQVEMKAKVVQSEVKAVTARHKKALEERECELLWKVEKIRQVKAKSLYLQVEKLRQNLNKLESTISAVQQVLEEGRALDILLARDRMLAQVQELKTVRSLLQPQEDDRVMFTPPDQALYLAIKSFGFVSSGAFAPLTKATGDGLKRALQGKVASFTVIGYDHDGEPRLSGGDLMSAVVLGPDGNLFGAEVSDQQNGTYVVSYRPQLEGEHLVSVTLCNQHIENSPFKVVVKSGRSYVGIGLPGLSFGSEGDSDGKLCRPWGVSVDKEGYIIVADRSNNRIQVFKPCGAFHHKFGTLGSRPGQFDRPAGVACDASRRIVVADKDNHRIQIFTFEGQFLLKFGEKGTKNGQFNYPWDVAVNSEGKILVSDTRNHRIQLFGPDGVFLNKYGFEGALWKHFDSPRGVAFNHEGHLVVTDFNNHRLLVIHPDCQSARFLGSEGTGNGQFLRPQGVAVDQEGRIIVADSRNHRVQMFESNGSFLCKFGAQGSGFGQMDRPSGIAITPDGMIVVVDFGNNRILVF", "protocol": "(§1) Cells were resuspended in cold PBS on ice and sonicated with a probe sonicator to achieve lysis. 200 μL of lysate containing 5 mg/ml proteome was treated with 2 μL of 100× compound stock in a 2-mL deep-well plate. The treated lysate was subsequently incubate at 25° C. for 1 hr with shaking at 600 rpm. The treated lysate was further incubated with 2 μL of 10 mM desthiobiotin iodoacetamide probe at 25° C. for 1 hr with shaking at 600 rpm. Next, the lysate was further treat with 20 μL of solution of PBS containing 11 mM MgSO4 and 2.5% Turbonuclease stock and incubated at 25° C. for 20 minutes with shaking at 600 rpm. 1.7 mL ice-cold acetone was added to each well and incubated at −20° C. for 2 hr, followed by max speed (4200 rpm) spin for 45 min. Acetone was then decanted and the plates were blotted to remove acetone. The plates were then dried in open air for 20 minutes. After drying, the plates were then covered with foil seal and stored at −80° C. overnight.\n(§2) The next day, samples were re-suspended in 90 μL of solution of 9M urea, 50 mM ammonium bicarbonate and 10 mM DTT by incubating at 65C for 20 min with shaking at 1500 rpm. Next, samples were cooled to 37° C. and then 10 μL of 500 mM iodoacetamide solution (92.48 mg/ml) was added. The samples were then incubated at 37° C. for 30 min with shaking at 600 rpm.\n(§3) ZEBA desalting plates were equilibrated 4 times using 250 μL of 2M urea, 50 mM ammonium bicarbonate solution followed by centrifugation at 1500 rpm for 2 minutes. After equilibration was complete, samples were applied to ZEBA desalting plate and spin at 1500 rpm for 2 min on top of 1 mL 96-well deep-well collection plate to buffer exchange samples. 4 μL of solution containing 25 mM CaCl2 and 0.25 mg/mL trypsin was added to the plate and the plate was then incubated at 37° C. for 2 hrs with shaking at 600 rpm. 300 μL of solution containing 5% high-capacity streptavidin agarose slurry in 25 mM Tris-HCl pH 7.5, 150 mM NaCl, and 0.1% NP-40 then added. The plate was incubated at 25° C. for 2 hrs with shaking at 600 rpm. Samples were transferred to 25 μm filter plate and spin at 1000 rpm for 2 min. Samples were then washed 3 times with 0.75 mL of wash buffer (25 mM Tris-HCl pH 7.5, 150 mM NaCl, and 0.1% NP-40) followed by washing 3 times with 0.75 mL PBS, and then 4 times with 0.75 mL water. After the washing step, samples were eluted into polypropylene 96-well plate by addition of 250 µL of 50% MeCN/water, 0.1% formic acid and allowed to gravity drip for 10 min, followed by centrifugation at 1000 rpm for 2 min. Speedvac was used to dry the plates at about 45° C. for […]. Then the plates were covered with foil seal and stored at −20° C.\n(§4) Samples were resuspended by addition of 20 μl of 12.5% ACN, 0.1% formic acid solution, covered with foil seal, and incubated at 42° C. for 10 minutes with shaking at 600 rpm. Then add 30 μL of 0.1% formic acid solution was added and the plate was covered and incubated at 42° C. for 10 minutes with shaking at 600 rpm. Seal plate was then sealed with a 96-well silicon mat for analysis."}, "[2]": {"biological_target": "ANAPC16 Anaphase-promoting complex subunit 16 (Homo sapiens, UniProt Q96DE5)", "parameters": "endogenous in cells", "protocol": "as §1, §2, §3, §4"}, "[3]": {"biological_target": "T2, RNF25 E3 ubiquitin-protein ligase RNF25 (Homo sapiens, UniProt Q96BH1)", "T2 sequence (Q96BH1 1-459)": "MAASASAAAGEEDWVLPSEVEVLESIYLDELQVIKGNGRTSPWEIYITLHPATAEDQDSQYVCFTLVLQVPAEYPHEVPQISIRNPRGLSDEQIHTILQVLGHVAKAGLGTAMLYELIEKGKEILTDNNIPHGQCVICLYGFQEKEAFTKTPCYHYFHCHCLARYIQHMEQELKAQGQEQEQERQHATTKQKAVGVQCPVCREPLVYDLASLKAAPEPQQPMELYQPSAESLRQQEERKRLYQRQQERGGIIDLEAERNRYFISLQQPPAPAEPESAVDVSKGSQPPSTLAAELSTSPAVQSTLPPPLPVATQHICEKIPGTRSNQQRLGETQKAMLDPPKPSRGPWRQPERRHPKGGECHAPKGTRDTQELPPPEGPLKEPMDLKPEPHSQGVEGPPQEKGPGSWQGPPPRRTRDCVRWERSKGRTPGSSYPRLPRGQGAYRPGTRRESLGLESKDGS", "parameters": "endogenous in cells", "protocol": "as §1, §2, §3, §4"}}, "note": "Where two headings read alike, the source gives them in different places.", "data": [{"smiles": "COc1ccc2c(c1)CCCN2C(=O)CCl", "note": "[KB02]", "values": [{"measurement": "inhibition at 100 µM", "setting": "[1]; 100 uM, UniProt Q2Q1W2, read-out: KB02_100 uM_percent_inhibition", "result": 39, "unit": "%"}, {"measurement": "Liganded", "setting": "[1]; TRIM71 Res# 636, uniprot Q2Q1W2", "result": "YES"}, {"measurement": "inhibition at 100 µM", "setting": "[2]; 100 uM, UniProt Q96DE5, read-out: KB02_100 uM_percent_inhibition", "result": 46, "unit": "%"}, {"measurement": "inhibition at 500 µM", "setting": "[2]; 500 uM, UniProt Q96DE5, read-out: KB02_500 uM_percent_inhibition", "result": 85, "unit": "%"}, {"measurement": "Liganded", "setting": "[2]; ANAPC16 Res# 55, uniprot Q96DE5", "result": "YES"}, {"measurement": "Liganded", "setting": "[3]; RNF25 Res# 417, uniprot Q96BH1", "result": "YES"}]}, {"smiles": "C=CC(=O)N(c1ccccc1)c1ccc(Br)cc1", "note": "[KB05]", "values": [{"measurement": "inhibition at 100 µM", "setting": "[1]; 100 uM, UniProt Q2Q1W2, read-out: KB05_100 uM_percent_inhibition", "result": 5, "unit": "%"}, {"measurement": "inhibition at 100 µM", "setting": "[2]; 100 uM, UniProt Q96DE5, read-out: KB05_100 uM_percent_inhibition", "result": 37, "unit": "%"}, {"measurement": "inhibition at 500 µM", "setting": "[2]; 500 uM, UniProt Q96DE5, read-out: KB05_500 uM_percent_inhibition", "result": 83, "unit": "%"}, {"measurement": "inhibition at 100 µM", "setting": "[3]; 100 uM, UniProt Q96BH1, read-out: percent_inhibition", "result": 11, "unit": "%"}]}, {"smiles": "O=C(CCl)Nc1cc(C(F)(F)F)cc(C(F)(F)F)c1", "note": "[KBO3]", "values": [{"measurement": "KB03_100 uM_percent_inhibition", "setting": "[1]; 100 uM, UniProt Q2Q1W2", "result": 17, "unit": "%"}, {"measurement": "100 Max", "setting": "[1]; uniprot Q2Q1W2", "result": 17.2}, {"measurement": "100 ave", "setting": "[1]; uniprot Q2Q1W2", "result": 17.2}, {"measurement": "500 Max", "setting": "[1]; uniprot Q2Q1W2", "result": 64.2}, {"measurement": "500 ave", "setting": "[1]; uniprot Q2Q1W2", "result": 64.2}, {"measurement": "KB03_100 uM_percent_inhibition", "setting": "[2]; 100 uM, UniProt Q96DE5", "result": 52, "unit": "%"}, {"measurement": "KB03_500 uM_percent_inhibition", "setting": "[2]; 500 uM, UniProt Q96DE5", "result": 82, "unit": "%"}, {"measurement": "500 Max", "setting": "[2]; uniprot Q96DE5", "result": 36.5}, {"measurement": "100 Max", "setting": "[2]; uniprot Q96DE5, unit assumed", "result": 20.4, "unit": "%"}, {"measurement": "100 ave", "setting": "[3]; uniprot Q96BH1", "result": 14.3}, {"measurement": "500 Max", "setting": "[3]; uniprot Q96BH1", "result": 62.0}, {"measurement": "500 ave", "setting": "[3]; uniprot Q96BH1", "result": 62.0}, {"measurement": "100 Max", "setting": "[3]; uniprot Q96BH1, unit assumed", "result": 14.3, "unit": "%"}]}]}
